On the set-up of data set [1]: method as in earlier work. To be noted: concentration range 0.5 mg/mL; cited from earlier work.
In data set [2] the test system is Male Wistar rats. Briefly: Phase I of biotransformation: cytochrome P450, EMND and AH in rat liver microsomes after in vivo treatment. On the procedure:
The animals were divided into six groups (n = 6). […] The animals in all groups were sacrificed on the eighth day of the beginning of the experiment. Livers were taken for assessment of biochemical parameters. For all following experiments the excised livers were washed out with cold saline solution (0.9% NaCl), blotted dray, weighed, and homogenized with appropriate buffers. The excised, perfused, and minced livers were homogenized with 3 mL of 1.17% KCl than centrifugated at 10 000 ×g for 30 min. The supernatant fractions were further centrifugated at 105 000 ×g for 60 min. The resulting microsomal pellets were stored at −20°C until assayed. At the day of assay the microsomal pellets were resuspended and diluted with phosphate buffer EDTA (pH = 7.4). Liver protein concentration was measured, using the method of Lowry and was adjusted to 4 mg/mL. (1) Assessment of Cytochrome P450 Quantity. Cytochrome P450 was quantified spectrophotometrically as a complex with CO at 450 nm and expressed as nmol/mg^−1 protein [28]. […] The method used 4-hydroxylation of aniline to 4-aminophenol that is chemically converted to a phenol-indophenol complex with an absorption maximum at 630 nm. Enzyme activity was expressed as nmol/min/mg. […] The enzyme activity was evaluated by the formation of formaldehyde, trapped in the solution as semicarbazone, and measured by the colorimetric procedure of Nash, at 415 nm. Enzyme activity was expressed as nmol/min/mg.

Data set [3] concerns Male Wistar rats. The data set is described as follows: Lipid peroxidation (MDA) in rat liver homogenate, in vivo paracetamol model. To be noted: for MDA: rat liver homogenate. On the procedure: The animals were divided into six groups (n = 6). […] The animals in all groups were sacrificed on the eighth day of the beginning of the experiment. Livers were taken for assessment of biochemical parameters. For all following experiments the excised livers were washed out with cold saline solution (0.9% NaCl), blotted dray, weighed, and homogenized with appropriate buffers. Lipid peroxidation was determined by measuring the rate of production of thiobarbituric acid reactive substances (TBARS) (expressed as malondialdehyde (MDA) equivalents) described by Polizio and Peña with slight modifications. Briefly one volume of homogenate was mixed with 1 mL 25% trichloroacetic acid (TCA) and 1 mL 0.67% thiobarbituric acid (TBA). Samples were then mixed thoroughly, heated for 20 min in a boiling water bath, cooled and centrifuged at 4000 rpm for 20 min. The absorbance of supernatant was measured at 535 nm against a blank that contained all the reagents except the tissue homogenate. MDA concentration was calculated using a molar extinction coefficient of 1.56 × 10^5 M^−1 cm^−1 and expressed in nmol/g wet tissue.

Data set [4] has as its system Male Wistar rats. Briefly: Antioxidant enzyme activities (SOD, CAT, GPx, GR, GST) in rat liver homogenate, in vivo paracetamol model. Conditions: for CAT / GPx / GR / GST / SOD: rat liver homogenate. The source says: The animals were divided into six groups (n = 6). […] The animals in all groups were sacrificed on the eighth day of the beginning of the experiment. Livers were taken for assessment of biochemical parameters. For all following experiments the excised livers were washed out with cold saline solution (0.9% NaCl), blotted dray, weighed, and homogenized with appropriate buffers. The livers were rinsed in ice-cold physiological saline and minced with scissors. […] Catalase (CAT) activity was determined by measuring the decrease in absorbance at 240 nm. […] SOD activity was expressed as nmol of epinephrine that are prevented from autoxidation after addition of the sample. […] The rate of disappearance of NADPH with time was determined by monitoring absorbance at 340 nm. Results are expressed in nmol/mg. Glutathione reductase activity (GR) was measured according to the method of Pinto et al. by following NADPH oxidation spectrophotometrically at 340 nm and using an extinction coefficient of 6.22 mM^−1 cm^−1. […] The enzyme activity is expressed as nmol of CDNB-GSH conjugate formed/min/mg protein.

For data set [5], the system named is Male Wistar rats. The data set is described as follows: Histopathological study of liver. The class given is in vivo, rat. The text has this: The animals were divided into six groups (n = 6). […] The animals in all groups were sacrificed on the eighth day of the beginning of the experiment. Livers were taken for assessment of biochemical parameters. For all following experiments the excised livers were washed out with cold saline solution (0.9% NaCl), blotted dray, weighed, and homogenized with appropriate buffers. For light microscopic evaluation, liver tissues were fixed in 10% buffered formalin and then thin sections (4 μm) were subsequently stained with hematoxylin/eosin for general histological features determination. Sections were studied under light microscope Leica DM 500.

Another data set has as its system isolated rat hepatocytes. The data set is described as follows: Paracetamol-induced model of toxicity in isolated rat hepatocytes. Conditions: 30 min preincubation with saponarin 60–0.006 μg/mL, then paracetamol 100 μmol for one hour; concentration-dependent.
In data set [6] the test system is Male Wistar rats. Briefly: GSH level in rat liver homogenate, in vivo paracetamol model. To be noted: for GSH: rat liver homogenate. The procedure: The animals were divided into six groups (n = 6). […] The animals in all groups were sacrificed on the eighth day of the beginning of the experiment. Livers were taken for assessment of biochemical parameters. For all following experiments the excised livers were washed out with cold saline solution (0.9% NaCl), blotted dray, weighed, and homogenized with appropriate buffers. GSH was assessed by measuring nonprotein sulfhydryls after precipitation of proteins with TCA, using the method described by Bump et al.. Briefly, tissues were homogenized in 5% trichloroacetic acid (TCA) and centrifugated for 20 min at 4 000 ×g. […] The absorbance was determined at 412 nm and the results expressed as nmol/g wet tissue.

Where [7] appears, read: rat liver microsomes, saponarin 80 mg/kg bw/day p.o. 7 days, alone.
Setting [8] is: saponarin alone 80 mg/kg p.o. 7 days, vs control.
The mark [9] stands for this setting: saponarin 80 mg/kg bw/day p.o. 7 days, alone.
Setting [10] is: saponarin 80 mg/kg p.o. 7 days pretreatment then paracetamol 600 mg/kg i.p.
Where [11] appears, read: saponarin pretreatment seven days then single i.p. paracetamol, compared to paracetamol alone.
Setting [12] is: paracetamol 600 mg/kg i.p. alone.
The mark [13] stands for this setting: paracetamol 600 mg/kg i.p. alone, compared to control animals.

Several values for one entry are separate records, joined by “and”; a condition that tells them apart may be missing. Identical values can stand only once. Entries after “also recorded” stand apart in the source; their conditions may differ.

Method for isolated rat hepatocytes: The effect of saponarin was compared to those of silymarin (50–0.005 μg/mL). The following parameters were measured to assess the functional status of hepatocytes: cell viability, lactate dehydrogenase (LDH) activity, reduced glutathione (GSH) levels, and malondialdehyde (MDA) quantity. Cell viability was assessed by Trypan blue exclusion method [19]. The dye was used at a final concentration of 0.05% and cells were counted under light microscope (×100). At the end of incubation, the cells were recovered via centrifugation at 400 ×g at 4°C. The supernatant was used for LDH and MDA assessment as described by Bergmeyer et al. [21] and Fau at al. [19], respectively. GSH measurement following the method used by Fau at al. [19] was assessed in the sediment.

On to “apigenin 6-C-glucosyl-7-O-glucoside [saponarin]”, for which the “inhibition of DPPH radical” value in data set [1] is reported as 88.8%. In the data set on Male Wistar rats [2] (setting [7]), the AH activity is listed as 0.047 ± 0.004 nmol/mg protein, the “Cytochrome P450” value is given as 0.244 ± 0.05 nmol/mg protein and the EMND activity is on record as 0.371 ± 0.011 nmol/mg protein. In the data set on Male Wistar rats [2] (setting [8]), the “decrease in AH activity” value is listed as 37%, the “decrease in EMND activity” value came to 24% and the “decrease in total P450 quantity” value is reported as 25%. In the data set on Male Wistar rats [3] (setting [9]), this compound displayed an MDA of 0.635 ± 0.07 nmol/g protein. The “MDA content relative to control level” value in the data set with Male Wistar rats [3] (setting [10]) is listed as “restored to the control level”. Besides, the “reduction of MDA in rat liver homogenate” value in the data set on Male Wistar rats [3] (saponarin 80 mg/kg p.o. 7 days pretreatment then paracetamol 600 mg/kg i.p., compared to PC-treated group) came to 18%. For the same compound, in the data set on Male Wistar rats [4] (setting [9]), the CAT is 110.4 ± 16 μmol H2O2/min/mg protein, the GPx came to 0.125 ± 0.02 nmol/min/mg protein, the GR came to 0.207 ± 0.03 nmol/min/mg protein and the GST was 0.208 ± 0.02 nmol CDNB-GSH conjugate formed/min/mg protein. The compound also returned an SOD with Male Wistar rats [4] (setting [9]) of 0.158 ± 0.015 nmol/min/mg protein. Also, in the data set with Male Wistar rats [4] (setting [11]), the “increase in GPx activity” value was 21%, the “increase in GR activity” value was determined as 39%, the “increase in GST activity” value stood at 21% and the “increase in SOD activity” value is listed as 24%. Moreover, the liver histopathology entry in the data set with Male Wistar rats [5] (rats pretreated with saponarin (80 mg/kg p.o. 7 days) then challenged with paracetamol 600 mg/kg i.p.) was “lower intensity of mononuclear accumulations and the presence of single cells showing intracellular oedema; also recorded: significant improvement of hepatocellular architecture”. The “protection against paracetamol-induced injury (cell viability, LDH activity, MDA quantity, GSH levels)” value with isolated rat hepatocytes is listed as “prevented the liver injury”. This compound also had a GSH in the data set on Male Wistar rats [6] (setting [9]) of 5.14 ± 0.31 nmol/g protein. Further, the “GSH levels compared to the paracetamol-only group” value in the data set on Male Wistar rats [6] (setting [10]) was “significantly higher levels of GSH”.

`CC(=O)Nc1ccc(O)cc1` [paracetamol]: the “increase of MDA level in rat liver homogenate” value in the data set with Male Wistar rats [3] (paracetamol 600 mg/kg i.p. alone, vs control animals) was found to be 30%. Further, the MDA in the data set with Male Wistar rats [3] (setting [12]) came out at 0.854 ± 0.04 nmol/g protein. For the same compound, in the data set with Male Wistar rats [4] (setting [13]), the “decrease in CAT activity” value came to 27%; the “decrease in GPx activity” value was 31-32%; the “decrease in GR activity” value stood at 38%; the “decrease in GST activity” value is 31% and 31-32%. Further, in the data set with Male Wistar rats [4] (setting [12]), the CAT is reported as 88.3 ± 10 μmol H2O2/min/mg protein, the GPx is recorded as 0.089 ± 0.01 nmol/min/mg protein, the GR was 0.137 ± 0.02 nmol/min/mg protein and the GST is 0.160 ± 0.01 nmol CDNB-GSH conjugate formed/min/mg protein. In the data set with Male Wistar rats [4] (setting [12]), this compound gave an SOD of 0.114 ± 0.012 nmol/min/mg protein. In the data set with Male Wistar rats [5] (paracetamol 600 mg/kg i.p. alone, hematoxylin/eosin, light microscopy), the liver histopathology result was “treatment-related changes associated with hepatotoxicity; also recorded: centriacinar and microvesicular accumulation of fats”. Further, in the data set with Male Wistar rats [6] (setting [13]), the “reduction in GSH levels in rat liver homogenate” value was 83%. The GSH in the data set on Male Wistar rats [6] (setting [12]) worked out at 0.96 ± 0.05 nmol/g protein.

The values above are taken from publication PMC3708395, “Hepatoprotective and Antioxidant Effects of Saponarin, Isolated from Gypsophila trichotoma Wend. on Paracetamol-Induced Liver Damage in Rats” (BioMed Research International, 2013).
